Measurements from US7727736B2, “Soluble phospholipids for use in clotting factor assays” (The University of North Carolina at Chapel Hill, priority 2003, dated 2010).

Key:
factor IXa [1] = molecular target: T1, factor IXa (Homo sapiens, UniProt P00740); assay: Binding of C6PS to Factor IXa detected by intrinsic fluorescence; settings: 0.20 μM factor IXa, 5 mM calcium, 22° C., single binding site model; read-out: stoichiometric Kd of C6PS binding to factor IXa
T1 construct: intrinsic tryptophan fluorescence of factor IXa
Experimental: Integrated intrinsic fluorescence of 0.20 μM factor IXa in 50 mM Tris, 150 mM NaCl, 5 mM CaCl2, and 0.6% PEG, pH 7.5 was measured as a function of C6PS concentration at 22° C. to follow C6PS binding.

factor IXa [2] = molecular target: T1, factor IXa; assay: Amidolytic activity of factor IXa with increasing C6PS; assay type: biochemical; settings: 300 nM factor IXa, substrate Leu-PHG-Arg-pNA-AcOH; read-out: Kd from amidolytic activity of factor IXa
Experimental: The assay was conducted in the presence of 1 mM Leu-PHG-Arg-pNA.AcOH and increasing concentrations of C6PS.

factor IXa [3] = molecular target: T1, factor IXa; assay: Activation of factor X by factor IXa (proteolytic activity); assay type: biochemical
Experimental: The assay was conducted in the presence of increasing concentrations of C6PS.
C6PS promotes the proteolytic activation of factor X by factor IXa, just as it promotes the proteolytic activation of prothrombin by factor Xa. […] The rate of activation of factor X by factor IXa in the presence of 700 μM C6PS was monitored at different concentrations of factor X (FIG. 11). The KM for this reaction was 300 nM, which is the same as that obtained with 20% PS/PC membranes (Larson et al. (1996) J. Biol. Chem. 271 3869).

factor Va = molecular target: T2, factor Va (Bos taurus, UniProt Q28107); settings: Zhai et al. (2002); read-out: kd of binding to factor Va; cited from earlier work
T2 sequence (Q28107 29-741 limits assumed): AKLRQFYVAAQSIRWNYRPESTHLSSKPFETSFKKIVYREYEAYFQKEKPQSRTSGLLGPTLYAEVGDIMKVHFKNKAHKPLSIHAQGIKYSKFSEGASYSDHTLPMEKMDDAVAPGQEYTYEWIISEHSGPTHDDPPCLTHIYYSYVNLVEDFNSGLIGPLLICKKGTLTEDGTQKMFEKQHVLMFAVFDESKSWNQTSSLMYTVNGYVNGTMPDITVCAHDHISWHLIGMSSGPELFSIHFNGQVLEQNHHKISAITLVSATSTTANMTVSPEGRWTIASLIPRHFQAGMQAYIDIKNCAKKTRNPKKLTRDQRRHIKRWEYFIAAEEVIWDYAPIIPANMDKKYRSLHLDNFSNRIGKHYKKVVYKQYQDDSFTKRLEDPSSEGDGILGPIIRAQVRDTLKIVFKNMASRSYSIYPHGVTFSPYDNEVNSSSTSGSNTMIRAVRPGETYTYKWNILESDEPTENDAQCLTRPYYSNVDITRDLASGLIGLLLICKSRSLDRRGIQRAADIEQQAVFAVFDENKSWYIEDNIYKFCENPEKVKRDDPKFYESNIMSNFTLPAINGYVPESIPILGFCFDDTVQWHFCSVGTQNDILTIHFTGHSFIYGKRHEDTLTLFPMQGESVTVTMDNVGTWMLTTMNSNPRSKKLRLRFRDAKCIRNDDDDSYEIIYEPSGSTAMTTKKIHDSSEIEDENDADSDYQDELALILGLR
T2 sequence (Q28107 1565-2211 limits assumed): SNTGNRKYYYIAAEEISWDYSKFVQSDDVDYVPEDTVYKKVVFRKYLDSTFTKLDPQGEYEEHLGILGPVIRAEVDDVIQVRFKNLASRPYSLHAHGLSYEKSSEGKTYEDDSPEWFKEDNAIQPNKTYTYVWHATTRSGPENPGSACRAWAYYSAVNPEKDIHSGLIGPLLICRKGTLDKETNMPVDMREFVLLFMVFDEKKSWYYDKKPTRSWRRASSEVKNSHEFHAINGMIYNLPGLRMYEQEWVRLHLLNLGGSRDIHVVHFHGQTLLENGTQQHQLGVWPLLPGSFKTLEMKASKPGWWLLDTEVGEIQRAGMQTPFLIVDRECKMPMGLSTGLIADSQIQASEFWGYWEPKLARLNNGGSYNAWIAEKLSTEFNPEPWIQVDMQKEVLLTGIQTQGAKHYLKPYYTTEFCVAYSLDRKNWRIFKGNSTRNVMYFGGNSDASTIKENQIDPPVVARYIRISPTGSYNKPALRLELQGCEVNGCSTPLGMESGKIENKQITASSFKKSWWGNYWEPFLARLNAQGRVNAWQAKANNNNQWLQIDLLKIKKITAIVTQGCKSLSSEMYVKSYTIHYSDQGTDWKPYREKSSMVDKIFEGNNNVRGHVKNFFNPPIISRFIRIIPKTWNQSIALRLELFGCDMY

T1 sequence (P00740 47-191 limits assumed): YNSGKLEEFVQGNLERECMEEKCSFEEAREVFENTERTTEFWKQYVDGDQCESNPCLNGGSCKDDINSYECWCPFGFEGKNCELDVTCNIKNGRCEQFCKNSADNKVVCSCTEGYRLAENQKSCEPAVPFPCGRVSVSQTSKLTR
T1 sequence (P00740 227-461 limits assumed): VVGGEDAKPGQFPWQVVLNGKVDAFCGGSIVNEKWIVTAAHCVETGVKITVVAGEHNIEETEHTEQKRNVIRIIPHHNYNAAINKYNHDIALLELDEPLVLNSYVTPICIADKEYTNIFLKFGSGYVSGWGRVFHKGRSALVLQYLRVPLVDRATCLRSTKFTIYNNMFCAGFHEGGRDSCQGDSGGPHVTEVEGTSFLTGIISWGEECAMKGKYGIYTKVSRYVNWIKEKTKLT

CCCCCC(=O)OC[C@H](COP(=O)(O)OC[C@H](N)C(=O)O)OC(=O)CCCCC [C6PS, 1,2-dicaproyl-sn-glycero-3-phospho-L-serine]
Kd (factor IXa [1]): ~1.3 µM | Kd (factor IXa [2]): 130 µM | Kd (factor IXa [3]; 10 nM IXa, 5 mM calcium, read-out: Kd from proteolytic activity of IXa (hyperbolic fit)): 164 µM | rate of activation of factor X by factor IXa compared with 20% PS/PC membranes (factor IXa [3]; 700 μM C6PS): identical | Kd (factor Va): ~90 µM
